Laboratory results taken from ChEMBL document CHEMBL1944551, “An integrated computational workflow for efficient and quantitative modeling of renin inhibitors” (Bioorg Med Chem, 2012).

assay: physchem; settings: octanol/buffer

| Structure (SMILES) | logP |
| --- | --- |
| CC(C)(C)OCC(=O)NCCc1ccc(Cl)c(CN(C(=O)[C@H]2CNCC(=O)N2c2ccc(CCCOc3c(F)ccc(F)c3F)cc2)C2CC2)c1 | 6.28 |
| CNC(=O)Cc1ccc(Cl)c(CN(C(=O)[C@H]2CNCC(=O)N2c2ccc(OCCOc3c(Cl)cc(C)cc3Cl)cc2)C2CC2)c1 | 5.26 |
| CNC(=O)Cc1ccc(Cl)c(CN(C(=O)[C@H]2CNCC(=O)N2c2ccc(OCCOc3c(Cl)cc(C)cc3Cl)nc2)C2CC2)c1 | 4.43 |
| CNC(=O)Cc1ccc(Cl)c(CN(C(=O)[C@H]2CNCC(=O)N2c2ccc(COC(=O)c3ccccc3)cc2)C2CC2)c1 | 4.15 |
| CNC(=O)Cc1ccc(Cl)c(CN(C(=O)[C@H]2CNCC(=O)N2c2ccc(OCCCOCc3ccccc3)cc2)C2CC2)c1 | 4.53 |
| CNC(=O)Cc1ccc(Cl)c(CN(C(=O)[C@H]2CNCC(=O)N2c2ccc(OCCCOCc3ccccc3OC)cc2)C2CC2)c1 | 4.48 |
| CNC(=O)Cc1ccc(Cl)c(CN(C(=O)[C@H]2CNCC(=O)N2c2cnc(OCCCOCc3ccccc3OC)nc2)C2CC2)c1 | 2.47 |
| CNC(=O)Cc1ccc(Cl)c(CN(C(=O)[C@H]2CNCC(=O)N2c2ccc(CCCOc3cccc(Cl)c3)cc2)C2CC2)c1 | 5.33 |
| CNC(=O)Cc1ccc(Cl)c(CN(C(=O)[C@H]2CNCC(=O)N2c2ccc(CCCOc3c(F)ccc(F)c3F)cc2)C2CC2)c1 | 5.15 |
| Cc1cc(Cl)c(OCCOc2ccc(N3C(=O)CNC[C@@H]3C(=O)N(C)Cc3ccccc3Cl)cc2)c(Cl)c1 | 5.18 |
| Cc1cc(Cl)c(OCCOc2ccc(N3C(=O)CNC[C@@H]3C(=O)N(C)Cc3ccccc3Cl)cn2)c(Cl)c1 | 4.35 |
| CN(Cc1ccccc1Cl)C(=O)[C@H]1CNCC(=O)N1c1ccc(OCCCOCc2ccccc2)cc1 | 4.45 |
| COc1ccccc1COCCCOc1ccc(N2C(=O)CNC[C@@H]2C(=O)N(C)Cc2ccccc2Cl)cc1 | 4.41 |
| COc1ccccc1COCCCOc1ncc(N2C(=O)CNC[C@@H]2C(=O)N(C)Cc2ccccc2Cl)cn1 | 2.4 |
| CN(Cc1ccccc1Cl)C(=O)[C@H]1CNCC(=O)N1c1ccc(CCCOc2cccc(Cl)c2)cc1 | 5.25 |
| CN(Cc1ccccc1Cl)C(=O)[C@H]1CNCC(=O)N1c1ccc(CCCOc2c(F)ccc(F)c2F)cc1 | 5.07 |
| Cc1cc(Cl)c(OCCOc2ccc(N3C(=O)CNC[C@@H]3C(=O)NCc3ccccc3Cl)cc2)c(Cl)c1 | 4.98 |
| Cc1cc(Cl)c(OCCOc2ccc(N3C(=O)CNC[C@@H]3C(=O)NCc3ccccc3Cl)cn2)c(Cl)c1 | 4.15 |
| O=C(OCc1ccc(N2C(=O)CNC[C@@H]2C(=O)NCc2ccccc2Cl)cc1)c1ccccc1 | 3.88 |
| O=C(NCc1ccccc1Cl)[C@H]1CNCC(=O)N1c1ccc(OCCCOCc2ccccc2)cc1 | 4.26 |
| COc1ccccc1COCCCOc1ccc(N2C(=O)CNC[C@@H]2C(=O)NCc2ccccc2Cl)cc1 | 4.21 |
| O=C(NCc1ccccc1Cl)[C@H]1CNCC(=O)N1c1ccc(CCCOc2cccc(Cl)c2)cc1 | 5.05 |
| O=C(NCc1ccccc1Cl)[C@H]1CNCC(=O)N1c1ccc(CCCOc2c(F)ccc(F)c2F)cc1 | 4.88 |
| Cc1cc(Cl)c(OCCOc2ccc(N3C(=O)CNC[C@@H]3C(=O)N(C)Cc3ccccc3)cc2)c(Cl)c1 | 4.59 |
| Cc1cc(Cl)c(OCCOc2ccc(N3C(=O)CNC[C@@H]3C(=O)N(C)Cc3ccccc3)cn2)c(Cl)c1 | 3.76 |
| CN(Cc1ccccc1)C(=O)[C@H]1CNCC(=O)N1c1ccc(COC(=O)c2ccccc2)cc1 | 3.49 |
| CN(Cc1ccccc1)C(=O)[C@H]1CNCC(=O)N1c1ccc(OCCCOCc2ccccc2)cc1 | 3.86 |

| Structure (SMILES) | logP |
| --- | --- |
| COc1ccccc1COCCCOc1ccc(N2C(=O)CNC[C@@H]2C(=O)N(C)Cc2ccccc2)cc1 | 3.82 |
| COc1ccccc1COCCCOc1ncc(N2C(=O)CNC[C@@H]2C(=O)N(C)Cc2ccccc2)cn1 | 1.8 |
| CN(Cc1ccccc1)C(=O)[C@H]1CNCC(=O)N1c1ccc(CCCOc2cccc(Cl)c2)cc1 | 4.66 |
| CN(Cc1ccccc1)C(=O)[C@H]1CNCC(=O)N1c1ccc(CCCOc2c(F)ccc(F)c2F)cc1 | 4.49 |
| Cc1cc(Cl)c(OCCOc2ccc(N3C(=O)CNC[C@@H]3C(=O)N(Cc3cccc(Cl)c3)C3CC3)cc2)c(Cl)c1 | 5.87 |
| Cc1cc(Cl)c(OCCOc2ccc(N3C(=O)CNC[C@@H]3C(=O)N(Cc3cccc(Cl)c3)C3CC3)cn2)c(Cl)c1 | 5.04 |
| O=C(OCc1ccc(N2C(=O)CNC[C@@H]2C(=O)N(Cc2cc(CNC3CC3)ccc2Cl)C2CC2)cc1)c1ccccc1 | 5.2 |
| O=C([C@H]1CNCC(=O)N1c1ccc(OCCCOCc2ccccc2)cc1)N(Cc1cc(CNC2CC2)ccc1Cl)C1CC1 | 5.58 |
| COc1ccccc1COCCCOc1ccc(N2C(=O)CNC[C@@H]2C(=O)N(Cc2cc(CNC3CC3)ccc2Cl)C2CC2)cc1 | 5.53 |
| COc1ccccc1COCCCOc1ncc(N2C(=O)CNC[C@@H]2C(=O)N(Cc2cc(CNC3CC3)ccc2Cl)C2CC2)cn1 | 3.52 |
| O=C([C@H]1CNCC(=O)N1c1ccc(CCCOc2cccc(Cl)c2)cc1)N(Cc1cc(CNC2CC2)ccc1Cl)C1CC1 | 6.38 |
| O=C([C@H]1CNCC(=O)N1c1ccc(CCCOc2c(F)ccc(F)c2F)cc1)N(Cc1cc(CNC2CC2)ccc1Cl)C1CC1 | 6.2 |
| Cc1cc(Cl)c(OCCOc2ccc(N3C(=O)CNC[C@@H]3C(=O)N(Cc3cc(CCNC(=O)CC(F)(F)F)ccc3Cl)C3CC3)cc2)c(Cl)c1 | 6.11 |
| Cc1cc(Cl)c(OCCOc2ccc(N3C(=O)CNC[C@@H]3C(=O)N(Cc3cc(CCNC(=O)CC(F)(F)F)ccc3Cl)C3CC3)cn2)c(Cl)c1 | 5.28 |
| O=C(CC(F)(F)F)NCCc1ccc(Cl)c(CN(C(=O)[C@H]2CNCC(=O)N2c2ccc(COC(=O)c3ccccc3)cc2)C2CC2)c1 | 5 |
| O=C(CC(F)(F)F)NCCc1ccc(Cl)c(CN(C(=O)[C@H]2CNCC(=O)N2c2ccc(OCCCOCc3ccccc3)cc2)C2CC2)c1 | 5.38 |
| COc1ccccc1COCCCOc1ccc(N2C(=O)CNC[C@@H]2C(=O)N(Cc2cc(CCNC(=O)CC(F)(F)F)ccc2Cl)C2CC2)cc1 | 5.33 |
| COc1ccccc1COCCCOc1ncc(N2C(=O)CNC[C@@H]2C(=O)N(Cc2cc(CCNC(=O)CC(F)(F)F)ccc2Cl)C2CC2)cn1 | 3.32 |
| O=C(CC(F)(F)F)NCCc1ccc(Cl)c(CN(C(=O)[C@H]2CNCC(=O)N2c2ccc(CCCOc3cccc(Cl)c3)cc2)C2CC2)c1 | 6.18 |
| O=C(CC(F)(F)F)NCCc1ccc(Cl)c(CN(C(=O)[C@H]2CNCC(=O)N2c2ccc(CCCOc3c(F)ccc(F)c3F)cc2)C2CC2)c1 | 6 |
| Cc1cc(Cl)c(OCCOc2ccc(N3C(=O)CNC[C@@H]3C(=O)N(Cc3cc(CCNC(=O)COC(C)(C)C)ccc3Cl)C3CC3)cc2)c(Cl)c1 | 6.38 |
| Cc1cc(Cl)c(OCCOc2ccc(N3C(=O)CNC[C@@H]3C(=O)N(Cc3cc(CCNC(=O)COC(C)(C)C)ccc3Cl)C3CC3)cn2)c(Cl)c1 | 5.56 |
| CC(C)(C)OCC(=O)NCCc1ccc(Cl)c(CN(C(=O)[C@H]2CNCC(=O)N2c2ccc(COC(=O)c3ccccc3)cc2)C2CC2)c1 | 5.28 |
| CC(C)(C)OCC(=O)NCCc1ccc(Cl)c(CN(C(=O)[C@H]2CNCC(=O)N2c2ccc(OCCCOCc3ccccc3)cc2)C2CC2)c1 | 5.66 |
| COc1ccccc1COCCCOc1ccc(N2C(=O)CNC[C@@H]2C(=O)N(Cc2cc(CCNC(=O)COC(C)(C)C)ccc2Cl)C2CC2)cc1 | 5.61 |
| COc1ccccc1COCCCOc1ncc(N2C(=O)CNC[C@@H]2C(=O)N(Cc2cc(CCNC(=O)COC(C)(C)C)ccc2Cl)C2CC2)cn1 | 3.6 |
| CC(C)(C)OCC(=O)NCCc1ccc(Cl)c(CN(C(=O)[C@H]2CNCC(=O)N2c2ccc(CCCOc3cccc(Cl)c3)cc2)C2CC2)c1 | 6.46 |
